We go through 21 molecules from ChEMBL document CHEMBL4414650, “Discovery of an Oleanolic Acid/Hederagenin-Nitric Oxide Donor Hybrid as an EGFR Tyrosine Kinase Inhibitor for Non-Small-Cell Lung Cancer” (J Nat Prod, 2019).

In general, IC50 refers to the midpoint of a concentration-inhibition curve. A high value points to weaker potency in that assay.

In one experiment the test system is MDA-MB-231. The experiment is described as follows: Antiproliferative activity against human MDA-MB-231 cells incubated for 72 hrs by SRB assay. Type of experiment: functional, cell-based. As to conditions: MDA-MB-231, 72 h.
Experiment [1] in a line: Antiproliferative activity against human KB-VIN10 cells incubated for 72 hrs by SRB assay. Type of experiment: functional, cell-based. As to conditions: KB-VIN10, 72 h. On the technique in general: The SRB assay estimates cell density from bound dye.
The next experiment relates to MCF7. Description: Antiproliferative activity against human MCF7 cells incubated for 72 hrs by SRB assay. Type of experiment: functional, cell-based. As to conditions: MCF7, 72 h.
For another experiment, the system named is A549. Description: Antiproliferative activity against human A549 cells harbouring wild type EGFR incubated for 72 hrs by SRB assay. Type of experiment: functional, cell-based. As to conditions: A549, 72 h.
In a further experiment the test system is KB. The experiment is described as follows: Antiproliferative activity against human KB cells incubated for 72 hrs by SRB assay. Type of experiment: functional, cell-based.
The subject of experiment [2] is NCI-H1975. Description: Antiproliferative activity against human NCI-H1975 cells assessed as induction of NO production at 100 uM incubated for 150 mins by Griess reagent based assay. In kind it is functional, cell-based. A general note: Griess reagent forms a coloured azo dye with nitrite.
Experiment [3] relates to NCI-H1975. The experiment is described as follows: Antiproliferative activity against human NCI-H1975 cells incubated for 72 hrs by MTS assay. In kind it is functional, cell-based. As to conditions: NCI-H1975, 72 h. (Formazan colour is commonly taken as a measure of viable cells.)
For experiment [4], the target named is Epidermal growth factor receptor (Homo sapiens, UniProt P00533). Description: biochemical. Type of experiment: cell-based, Sf9.
Chain of Epidermal growth factor receptor (Homo sapiens, UniProt P00533) (P00533 whole entry): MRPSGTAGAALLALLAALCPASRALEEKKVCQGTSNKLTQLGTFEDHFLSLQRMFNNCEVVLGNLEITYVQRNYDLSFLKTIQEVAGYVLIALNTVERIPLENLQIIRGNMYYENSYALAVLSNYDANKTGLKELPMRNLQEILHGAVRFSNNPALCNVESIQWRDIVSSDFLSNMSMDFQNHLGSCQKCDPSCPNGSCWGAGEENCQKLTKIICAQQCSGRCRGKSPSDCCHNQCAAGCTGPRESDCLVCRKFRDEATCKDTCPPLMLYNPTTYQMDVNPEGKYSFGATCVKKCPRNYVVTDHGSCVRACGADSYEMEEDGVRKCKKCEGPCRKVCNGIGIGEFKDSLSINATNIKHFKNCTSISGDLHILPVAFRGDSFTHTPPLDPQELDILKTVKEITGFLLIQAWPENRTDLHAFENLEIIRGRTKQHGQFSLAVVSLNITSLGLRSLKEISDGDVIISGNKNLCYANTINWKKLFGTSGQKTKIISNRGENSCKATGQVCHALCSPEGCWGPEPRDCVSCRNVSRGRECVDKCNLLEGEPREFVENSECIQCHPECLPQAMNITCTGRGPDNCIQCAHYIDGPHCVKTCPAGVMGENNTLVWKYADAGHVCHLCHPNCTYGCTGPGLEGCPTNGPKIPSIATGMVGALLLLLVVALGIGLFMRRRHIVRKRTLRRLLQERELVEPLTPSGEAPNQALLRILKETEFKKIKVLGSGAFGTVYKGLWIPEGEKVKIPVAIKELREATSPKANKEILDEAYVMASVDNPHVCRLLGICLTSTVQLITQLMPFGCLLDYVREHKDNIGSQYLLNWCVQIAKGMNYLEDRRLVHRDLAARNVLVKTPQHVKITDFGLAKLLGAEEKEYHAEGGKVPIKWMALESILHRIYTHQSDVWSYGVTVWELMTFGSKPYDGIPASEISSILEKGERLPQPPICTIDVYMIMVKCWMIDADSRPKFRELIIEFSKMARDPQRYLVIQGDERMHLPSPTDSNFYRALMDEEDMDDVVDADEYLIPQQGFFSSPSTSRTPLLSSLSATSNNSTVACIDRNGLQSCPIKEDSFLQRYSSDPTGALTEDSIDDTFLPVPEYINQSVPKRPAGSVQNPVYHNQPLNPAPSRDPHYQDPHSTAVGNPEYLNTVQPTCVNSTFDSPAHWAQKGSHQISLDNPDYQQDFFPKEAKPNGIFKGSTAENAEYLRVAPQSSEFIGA
Description: Inhibition of C-terminal His-tagged/ N-terminal GST-tagged recombinant human EGFR (668 to 1210 residues) expressed in a Baculovirus infected Sf9 cell expression system using poly-EY as substrate incubated for 30 mins by ADP-Glo kinase assay
The test system of experiment [5] is NCI-H1975. Description: cells. To be noted: Homo sapiens, NCI-H1975, 72 h. In kind it is functional, cell-based.
Experiment [6] concerns the target Epidermal growth factor receptor (Homo sapiens, UniProt P00533, L858R/T790M). The experiment is described as follows: biochemical. Type of experiment: cell-based, Sf9.
The target in experiment [7] is Epidermal growth factor receptor (Homo sapiens, UniProt P00533, C797S/L858R/T790M). The experiment is described as follows: biochemical. Type of experiment: cell-based, Sf9.
Chain of Epidermal growth factor receptor (Homo sapiens, UniProt P00533, C797S/L858R/T790M) (P00533 25-1210 T790M/C797S/L858R limits assumed): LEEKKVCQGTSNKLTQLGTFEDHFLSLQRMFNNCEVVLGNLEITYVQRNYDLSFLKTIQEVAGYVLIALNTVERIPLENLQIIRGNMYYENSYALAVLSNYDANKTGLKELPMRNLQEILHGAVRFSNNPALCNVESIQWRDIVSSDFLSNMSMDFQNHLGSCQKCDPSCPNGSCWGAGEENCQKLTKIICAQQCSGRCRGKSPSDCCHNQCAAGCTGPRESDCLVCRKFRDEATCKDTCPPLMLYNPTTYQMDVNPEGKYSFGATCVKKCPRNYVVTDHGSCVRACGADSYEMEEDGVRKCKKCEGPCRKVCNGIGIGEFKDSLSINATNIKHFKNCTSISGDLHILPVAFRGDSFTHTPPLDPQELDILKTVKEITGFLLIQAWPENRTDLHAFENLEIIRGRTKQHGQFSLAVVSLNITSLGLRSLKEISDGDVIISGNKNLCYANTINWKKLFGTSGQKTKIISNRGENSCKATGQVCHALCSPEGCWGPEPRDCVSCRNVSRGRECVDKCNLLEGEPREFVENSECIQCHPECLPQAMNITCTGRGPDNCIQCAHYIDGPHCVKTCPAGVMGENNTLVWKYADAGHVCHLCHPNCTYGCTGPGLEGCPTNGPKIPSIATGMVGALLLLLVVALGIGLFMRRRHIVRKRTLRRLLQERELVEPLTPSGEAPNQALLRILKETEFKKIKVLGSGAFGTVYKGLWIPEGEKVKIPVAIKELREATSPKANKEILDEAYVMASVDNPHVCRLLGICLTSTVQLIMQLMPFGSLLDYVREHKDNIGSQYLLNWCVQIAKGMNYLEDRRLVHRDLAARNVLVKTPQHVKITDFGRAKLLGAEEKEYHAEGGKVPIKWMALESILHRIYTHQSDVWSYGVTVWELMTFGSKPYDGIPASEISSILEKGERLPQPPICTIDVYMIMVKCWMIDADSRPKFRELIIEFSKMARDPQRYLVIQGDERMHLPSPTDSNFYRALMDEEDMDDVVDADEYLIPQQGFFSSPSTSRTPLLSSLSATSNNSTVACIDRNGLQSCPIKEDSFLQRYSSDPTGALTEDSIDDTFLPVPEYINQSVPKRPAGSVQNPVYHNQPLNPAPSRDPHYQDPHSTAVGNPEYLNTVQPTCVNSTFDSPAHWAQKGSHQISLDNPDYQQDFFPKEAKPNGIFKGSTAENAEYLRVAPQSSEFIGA

Structures are written as SMILES. Calls of active or inactive are those of the source. No cut-off for these calls is given here.

Chain of Epidermal growth factor receptor (Homo sapiens, UniProt P00533, L858R/T790M) (P00533 25-1210 T790M/L858R limits assumed): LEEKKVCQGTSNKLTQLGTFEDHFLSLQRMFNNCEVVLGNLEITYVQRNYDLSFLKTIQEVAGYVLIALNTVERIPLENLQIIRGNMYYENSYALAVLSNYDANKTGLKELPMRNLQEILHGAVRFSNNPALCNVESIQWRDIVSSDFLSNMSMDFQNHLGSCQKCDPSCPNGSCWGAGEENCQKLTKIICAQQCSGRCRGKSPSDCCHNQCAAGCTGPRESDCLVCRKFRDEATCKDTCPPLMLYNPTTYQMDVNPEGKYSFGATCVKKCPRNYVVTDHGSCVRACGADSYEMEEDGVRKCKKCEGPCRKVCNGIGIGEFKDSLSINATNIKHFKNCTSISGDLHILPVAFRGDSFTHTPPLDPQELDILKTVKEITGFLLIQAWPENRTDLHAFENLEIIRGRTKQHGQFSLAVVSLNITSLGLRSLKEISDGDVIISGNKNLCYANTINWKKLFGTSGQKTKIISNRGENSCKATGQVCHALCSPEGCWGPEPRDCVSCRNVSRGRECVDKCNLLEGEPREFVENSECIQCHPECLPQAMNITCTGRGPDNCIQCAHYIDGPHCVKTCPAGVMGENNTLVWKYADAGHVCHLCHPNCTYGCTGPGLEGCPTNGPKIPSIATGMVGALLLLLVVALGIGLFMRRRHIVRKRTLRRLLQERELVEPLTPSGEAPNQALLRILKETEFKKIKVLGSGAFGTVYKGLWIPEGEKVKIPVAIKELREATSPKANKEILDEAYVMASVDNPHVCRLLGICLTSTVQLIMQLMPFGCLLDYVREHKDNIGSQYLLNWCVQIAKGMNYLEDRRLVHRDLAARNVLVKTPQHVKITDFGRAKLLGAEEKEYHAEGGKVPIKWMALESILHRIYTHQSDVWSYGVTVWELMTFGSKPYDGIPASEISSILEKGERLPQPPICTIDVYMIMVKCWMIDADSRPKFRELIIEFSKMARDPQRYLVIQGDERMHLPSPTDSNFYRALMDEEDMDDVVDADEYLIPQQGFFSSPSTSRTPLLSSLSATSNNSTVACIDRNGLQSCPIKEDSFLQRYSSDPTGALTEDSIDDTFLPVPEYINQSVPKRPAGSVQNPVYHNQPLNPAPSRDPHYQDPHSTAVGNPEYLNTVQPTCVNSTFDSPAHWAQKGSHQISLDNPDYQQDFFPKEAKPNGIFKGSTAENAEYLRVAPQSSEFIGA

On to `CC(=O)OC[C@@]1(C)[C@@H]2CC[C@]3(C)[C@H](CC=C4[C@@H]5CC(C)(C)CC[C@]5(C(=O)OCCO[N+](=O)[O-])CC[C@]43C)[C@@]2(C)CC[C@@H]1OC(C)=O`, for which the IC50 is 7.3 µM with MDA-MB-231; greater than 40 µM in experiment [1]; greater than 10 µM in the experiment on MCF7; 5.3 µM with A549; 7 µM in the experiment with KB. Besides, the outcome in the experiment with NCI-H1975 [2] was Active.
Turning to `CC1(C)CC[C@]2(C(=O)O)CC[C@]3(C)C(=CC[C@@H]4[C@@]5(C)CC[C@H](O)[C@@](C)(CO)[C@@H]5CC[C@]43C)[C@@H]2C1` [HEDERAGENIN], the concentration for half-maximal inhibition (IC50) in the experiment with NCI-H1975 [3] is greater than 10 µM; in experiment [4], greater than 20 µM; in the experiment on MDA-MB-231, greater than 10 µM; in [1], greater than 10 µM; with MCF7, greater than 10 µM; in the experiment with A549, greater than 10 µM. For the same molecule, the half-inhibitory concentration (IC50) in the experiment on NCI-H1975 [5] is greater than 10 µM; with KB, greater than 10 µM; in experiment [6], greater than 20 µM; in experiment [7], greater than 20 µM.
`CC1(C)CC[C@]2(C(=O)OCCCCCCO[N+](=O)[O-])CC[C@]3(C)C(=CC[C@@H]4[C@@]5(C)CC[C@H](O)[C@@](C)(CO)[C@@H]5CC[C@]43C)[C@@H]2C1`: the IC50 is greater than 10 µM in the experiment on MDA-MB-231; greater than 40 µM in experiment [1]; greater than 10 µM in the experiment on MCF7; greater than 10 µM in the experiment with A549; greater than 10 µM in the experiment on KB.
`C=CC(=O)O[C@H]1CC[C@]2(C)[C@H]3CC=C4[C@@H]5CC(C)(C)CC[C@]5(C(=O)OCCCCO[N+](=O)[O-])CC[C@@]4(C)[C@]3(C)CC[C@H]2C1(C)C`: the IC50 in the experiment on NCI-H1975 [3] was greater than 10 µM; in [4] it was greater than 20 µM; with MDA-MB-231 it was greater than 10 µM; in experiment [1] it was greater than 10 µM; with MCF7, greater than 10 µM; with A549, greater than 10 µM. The IC50 with NCI-H1975 [5] is greater than 10 µM; in the experiment with KB, greater than 10 µM; in experiment [6], greater than 20 µM; in experiment [7], greater than 20 µM.
With `COc1cc(N2CCC(N3CCN(C)CC3)CC2)ccc1Nc1ncc(Cl)c(Nc2ccccc2P(C)(C)=O)n1` [BRIGATINIB], the IC50 in the experiment with NCI-H1975 [3] was 0.62 µM; with NCI-H1975 [5], 0.64 µM.
As to `CC1(C)CC[C@]2(C(=O)OCCCCO[N+](=O)[O-])CC[C@]3(C)C(=CC[C@@H]4[C@@]5(C)CC[C@H](OC(=O)c6ccc([N+](=O)[O-])cc6)C(C)(C)[C@@H]5CC[C@]43C)[C@@H]2C1`, the IC50 with NCI-H1975 [3] was greater than 10 µM; in experiment [4], greater than 20 µM; with NCI-H1975 [5], greater than 10 µM; in experiment [6], greater than 20 µM; in experiment [7] it was greater than 20 µM.
For the molecule `CC(=O)O[C@H]1CC[C@]2(C)[C@H]3CC=C4[C@@H]5CC(C)(C)CC[C@]5(C(=O)O)CC[C@@]4(C)[C@]3(C)CC[C@H]2C1(C)C` [ACETYL OLEANOLIC ACID], the half-inhibitory concentration (IC50) in the experiment on MDA-MB-231 was greater than 10 µM; in experiment [1], 7.6 µM; in the experiment with MCF7, greater than 10 µM; in the experiment with A549, 5.8 µM; with KB it was 7.6 µM.
For `CC1(C)CC[C@]2(C(=O)OCCCCO[N+](=O)[O-])CC[C@]3(C)C(=CC[C@@H]4[C@@]5(C)CC[C@H](O)C(C)(C)[C@@H]5CC[C@]43C)[C@@H]2C1`, the IC50 was greater than 10 µM in the experiment with MDA-MB-231; greater than 10 µM in [1]; greater than 10 µM with MCF7; 9.2 µM in the experiment with A549; greater than 10 µM with KB.
Turning to `CC1(C)CC[C@]2(C(=O)OCCCCCCO[N+](=O)[O-])CC[C@]3(C)C(=CC[C@@H]4[C@@]5(C)CC[C@H](O)C(C)(C)[C@@H]5CC[C@]43C)[C@@H]2C1`, the IC50 (in the experiment with MDA-MB-231; in experiment [1]; with MCF7; in the experiment with A549; with KB) was greater than 10 µM in each case.
For the molecule `CC(=O)O[C@H]1C(=O)[C@@]2(C)[C@H]([C@H](OC(=O)c3ccccc3)[C@]3(O)C[C@H](OC(=O)[C@H](O)[C@@H](NC(=O)c4ccccc4)c4ccccc4)C(C)=C1C3(C)C)[C@]1(OC(C)=O)CO[C@@H]1C[C@@H]2O` [PACLITAXEL], the concentration for half-maximal inhibition (IC50) (in experiment [1]; with MCF7) was greater than 10 µM each time.
Regarding `CC(=O)OC[C@@]1(C)[C@@H]2CC[C@]3(C)[C@H](CC=C4[C@@H]5CC(C)(C)CC[C@]5(C(=O)O)CC[C@]43C)[C@@]2(C)CC[C@@H]1OC(C)=O`, the IC50 is greater than 10 µM in the experiment with MDA-MB-231, 8.5 µM in experiment [1] and greater than 10 µM with MCF7.
Regarding `CC1(C)CC[C@]2(C(=O)OCCCCO[N+](=O)[O-])CC[C@]3(C)C(=CC[C@@H]4[C@@]5(C)CC[C@H](O)[C@@](C)(CO)[C@@H]5CC[C@]43C)[C@@H]2C1`, the IC50 in the experiment on NCI-H1975 [3] was greater than 10 µM; in experiment [4] it was 0.19 µM; in the experiment with MDA-MB-231, greater than 10 µM; in experiment [1] it was greater than 10 µM; in the experiment on MCF7 it was 8 µM; in the experiment on A549, 9.3 µM. For the same molecule, the IC50 was greater than 10 µM in the experiment with NCI-H1975 [5], greater than 10 µM in the experiment with KB, greater than 20 µM in [6] and 0.04 µM in experiment [7]. Besides, the result in the experiment on NCI-H1975 [2] was Active.
Consider `CC1(C)CC[C@]2(C(=O)O)CC[C@]3(C)C(=CC[C@@H]4[C@@]5(C)CC[C@H](O)C(C)(C)[C@@H]5CC[C@]43C)[C@@H]2C1` [OLEANOLIC_ACID], for which the IC50 with NCI-H1975 [3] is greater than 10 µM; in experiment [4] it was greater than 20 µM; in the experiment on MDA-MB-231, greater than 10 µM; in experiment [1], greater than 10 µM; with MCF7, greater than 10 µM; in the experiment on A549, 6.4 µM. Besides, the half-inhibitory concentration (IC50) in the experiment with NCI-H1975 [5] was greater than 10 µM; in the experiment with KB, greater than 10 µM; in experiment [6], greater than 20 µM; in experiment [7] it was greater than 20 µM.
In the case of `CC1(C)CC[C@]2(C(=O)OCCCCO[N+](=O)[O-])CC[C@]3(C)C(=CC[C@@H]4[C@@]5(C)CC[C@H](OCc6ccccc6)C(C)(C)[C@@H]5CC[C@]43C)[C@@H]2C1`, the half-inhibitory concentration (IC50) is greater than 10 µM with NCI-H1975 [3]; greater than 20 µM in [4]; greater than 10 µM in the experiment with MDA-MB-231; greater than 10 µM in [1]; greater than 10 µM with MCF7; greater than 10 µM in the experiment with A549. The IC50 in the experiment with NCI-H1975 [5] is greater than 10 µM; in the experiment on KB it was greater than 10 µM; in experiment [6], greater than 20 µM; in experiment [7] it was greater than 20 µM.
With `C=CC(=O)Nc1cc(Nc2nccc(-c3cn(C)c4ccccc34)n2)c(OC)cc1N(C)CCN(C)C` [OSIMERTINIB], the IC50 in the experiment with NCI-H1975 [3] turned out to be […]; with NCI-H1975 [5], […].
In the case of `CC(=O)OC[C@@]1(C)[C@@H]2CC[C@]3(C)[C@H](CC=C4[C@@H]5CC(C)(C)CC[C@]5(C(=O)OCCCCCCO[N+](=O)[O-])CC[C@]43C)[C@@]2(C)CC[C@@H]1OC(C)=O`, the IC50 in the experiment with MDA-MB-231 was 5.1 µM; in [1] it was 4.9 µM; in the experiment with MCF7 it was 4.6 µM; in the experiment with A549, 4.7 µM; in the experiment on KB it was 4.8 µM. Also, the result in the experiment with NCI-H1975 [2] was Active.
As for `CC(=O)O[C@H]1CC[C@]2(C)[C@H]3CC=C4[C@@H]5CC(C)(C)CC[C@]5(C(=O)OCCCCCCO[N+](=O)[O-])CC[C@@]4(C)[C@]3(C)CC[C@H]2C1(C)C`, the IC50 was 5.3 µM in the experiment with MDA-MB-231; 7.6 µM in [1]; 6.4 µM in the experiment with MCF7; 5 µM with A549; 5.1 µM with KB. Further, the result in the experiment on NCI-H1975 [2] was Active.
With `CC1(C)CC[C@]2(C(=O)OCCO[N+](=O)[O-])CC[C@]3(C)C(=CC[C@@H]4[C@@]5(C)CC[C@H](O)[C@@](C)(CO)[C@@H]5CC[C@]43C)[C@@H]2C1`, the IC50 in the experiment on MDA-MB-231 was 9.2 µM; in experiment [1], greater than 10 µM; with MCF7 it was greater than 10 µM; with A549, greater than 10 µM; with KB, 9.5 µM. Also, in the experiment on NCI-H1975 [2], the outcome was Active.
For `CC(=O)O[C@H]1CC[C@]2(C)[C@H]3CC=C4[C@@H]5CC(C)(C)CC[C@]5(C(=O)OCCO[N+](=O)[O-])CC[C@@]4(C)[C@]3(C)CC[C@H]2C1(C)C`, the IC50 in the experiment with MDA-MB-231 is 7.9 µM; in experiment [1], greater than 10 µM; in the experiment on MCF7, 6.8 µM; with A549 it was 6.3 µM; in the experiment with KB, 4.9 µM. Further, the result in the experiment with NCI-H1975 [2] was Active.
On to `CC1(C)CC[C@]2(C(=O)OCCCCO[N+](=O)[O-])CC[C@]3(C)C(=CC[C@@H]4[C@@]5(C)CC[C@H](OC(=O)/C=C/c6ccc7c(c6)OCO7)C(C)(C)[C@@H]5CC[C@]43C)[C@@H]2C1`, for which the IC50 was greater than 10 µM in the experiment on NCI-H1975 [3]; greater than 20 µM in experiment [4]; greater than 10 µM in the experiment on NCI-H1975 [5]; greater than 20 µM in [6]; greater than 20 µM in experiment [7].
For `CC1(C)CC[C@]2(C(=O)OCCCCO[N+](=O)[O-])CC[C@]3(C)C(=CC[C@@H]4[C@@]5(C)CC[C@H](OC(=O)c6ccccc6)C(C)(C)[C@@H]5CC[C@]43C)[C@@H]2C1`, the concentration for half-maximal inhibition (IC50) with NCI-H1975 [3] is greater than 10 µM; in [4], greater than 20 µM; in the experiment with MDA-MB-231 it was greater than 10 µM; in [1] it was greater than 10 µM; with MCF7, greater than 10 µM; in the experiment with A549, greater than 10 µM. Besides, the IC50 is greater than 10 µM in the experiment on NCI-H1975 [5], greater than 10 µM in the experiment on KB, greater than 20 µM in [6] and greater than 20 µM in experiment [7].
